Tests used:
HER2 S310F = experiment: Tumor pHER2/pERK AlphaLisa in mice bearing HER2 S310F BaF3 tumors (Examples 15-18); format: in vivo; conditions: two day acute oral dosing, 15 mg/kg; at peak plasma levels
Protocol: (§1) Following the second dose, tumors were collected at 2 hours, 5 hours, 12 hours and 24 hours, and analyzed for both pHER2 activity and pERK activity via AlphaLisa. Plasma was also collected at these time points and analayzed for the presence of Compound No. 21 to determine pharmacokinetic profile. The tumor tissue was cut and homogenized using the Precellys Soft Tissue Homogenizing kit (KT03961-1-00.3.2) containing T-PER tissue protein extraction reagent (Thermo Scientific #78510), supplemented with Protease Inhibitor (Sigma P8340), and Phosphatase Inhibitors II and III (Sigma P5726 and P0044). Tissue samples were homogenized in the Precellys machine by spinning two times for one minute each. Sample tubes were centrifuged for 5 min at 15,000 rpm at 4° C. The supernatant was transferred to a fresh microtube and spun again for 5 minutes at 15,000 rpm at 4° C. Supernatant was then transferred to a fresh microtube and placed on ice. The protein concentration of the supernatant was measured using the BCA reagent Kit (Thermo Scientific #23225). Tumor tissue-derived lysates were analyzed for either HER2 activity or EGFR activity by detection of pHER2 (Tyr1221/1222) or pERK (Thr202/Tyr204) phosphosites, respectively, via AlphaLisa. Briefly, tumor Lysates were diluted to 0.5 ug/ul in 1× diluted SureFire Ultra Kit Lysis Buffer (5× supplied stock) supplemented with Protease Inhibitor (Sigma P8340) and Phosphatase Inhibitor II and III (Sigma P5726 and P0044). 10 ul of total tumor lysate was added per well in triplicate to a 384-well Opti-plate (Perkin Elmer #6007290). Activation Buffer was diluted 25-fold in combined Reaction Buffer 1 and Reaction Buffer 2, and acceptor beads were diluted 50-fold in the combined Reaction Buffers. 5 ul/well of the Acceptor bead:Reaction buffer mixture was added to each well.
as §1, with “No. 5” for “No. 21”, “Buffer (X” for “Buffer (5×”
To determine the ability of Compound No. 118 to inhibit tumor growth and induce tumor regression in vivo, a mouse tumor model containing the HER2 S310F mutation was used. Athymic nude mice from Charles River Labs bearing HER2 S310F BaF3 tumors were treated with two day acute oral dosing of Compound No. 118 at 15 mg/kg. […]

wild type HER2 (HER2-WT) = wild type HER2 (HER2-WT) (Homo sapiens, UniProt P04626); experiment: BaF3 panel Cell Titer Glo proliferation, wild type HER2 (Example 3); format: cell-based; conditions: BaF3 transformant, 72 hours, FIG. 21; read-out: IC50, HER-WT
wild type HER2 (HER2-WT), sequence (P04626 23-1255): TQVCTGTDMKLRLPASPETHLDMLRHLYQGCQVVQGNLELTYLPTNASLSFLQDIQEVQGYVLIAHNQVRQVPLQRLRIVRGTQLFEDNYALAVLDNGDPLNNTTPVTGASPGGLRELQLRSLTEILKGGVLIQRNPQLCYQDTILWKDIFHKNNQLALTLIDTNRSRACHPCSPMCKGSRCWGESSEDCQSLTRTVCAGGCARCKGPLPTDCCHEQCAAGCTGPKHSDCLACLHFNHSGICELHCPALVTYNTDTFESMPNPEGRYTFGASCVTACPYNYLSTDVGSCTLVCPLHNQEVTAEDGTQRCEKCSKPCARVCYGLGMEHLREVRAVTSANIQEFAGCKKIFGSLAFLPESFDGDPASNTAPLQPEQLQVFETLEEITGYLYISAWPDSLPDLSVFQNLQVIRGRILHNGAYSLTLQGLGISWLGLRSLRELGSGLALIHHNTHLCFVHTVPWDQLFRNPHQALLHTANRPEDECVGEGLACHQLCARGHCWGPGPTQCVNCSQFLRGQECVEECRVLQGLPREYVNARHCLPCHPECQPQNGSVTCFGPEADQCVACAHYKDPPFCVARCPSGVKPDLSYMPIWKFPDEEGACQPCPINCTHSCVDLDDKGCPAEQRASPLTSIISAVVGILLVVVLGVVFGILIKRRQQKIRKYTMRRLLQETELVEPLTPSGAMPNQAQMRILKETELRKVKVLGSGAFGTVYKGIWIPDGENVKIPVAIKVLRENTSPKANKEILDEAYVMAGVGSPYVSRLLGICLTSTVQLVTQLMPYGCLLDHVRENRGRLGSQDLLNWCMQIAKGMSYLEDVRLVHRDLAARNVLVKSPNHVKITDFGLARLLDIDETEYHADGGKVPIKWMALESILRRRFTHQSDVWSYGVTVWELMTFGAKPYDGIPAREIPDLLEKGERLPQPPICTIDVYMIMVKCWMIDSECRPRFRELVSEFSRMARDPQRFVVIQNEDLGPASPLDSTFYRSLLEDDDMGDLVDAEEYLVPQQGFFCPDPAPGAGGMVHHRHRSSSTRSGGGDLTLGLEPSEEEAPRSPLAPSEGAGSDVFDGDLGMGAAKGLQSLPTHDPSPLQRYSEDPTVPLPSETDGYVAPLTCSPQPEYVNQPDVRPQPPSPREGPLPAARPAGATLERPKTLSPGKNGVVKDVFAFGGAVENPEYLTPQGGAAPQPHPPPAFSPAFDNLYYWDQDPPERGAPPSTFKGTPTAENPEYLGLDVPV
Protocol: To determine the ability of Compound No. 6 to target wild type HER2, wild type EGFR, and relevant mutants of each, a panel of BaF3 cell lines and the A431 cell line were dosed and assessed in cell proliferation assays. The BaF3 parental cell line is normally dependent on IL-3 for proliferation, but when transformed with active tyrosine kinase can grow in the absence of IL-3. However, when transformed kinase activity is inhibited by a targeted small molecule the associated proliferation is reduced in proportion to the extent of inhibition. A panel of BaF3 cell lines were generated by transforming the parental BaF3 cell line with wild type HER2 (HER2-WT), HER2 S310F (HER2-S310F), HER2 Exon 20 insertion YVMA (HER2-YVMA), EGFR-Exon 20 insertion ASV (EGFR-ASV), EGFR-Exon 20 insertion SVD (EGFR-SVD), or EGFR-Exon 20 insertion NPH (EGFR-NPH). The A431 […] cell line, which natively expresses WT-EGFR, was used to assess WT-EGFR inhibition. […] Proliferation was assessed using the Cell Titer Glo cell proliferation kit (Promega # G7573). […] Cell Titer Glo was added to plated cells at 15 ul per well, the plate was shaken for 20 minutes at room temperature, and luminescence was measured using Victor X3 Multimode plate reader (Perkin Elmer), Cell Titer Glo readings were taken following 72 hours (T72) after addition of Compound No. 6. […]

[1] = system: EGFR mutants (EGFR-ASV, EGFR-NPH) over wild type EGFR; experiment: Relative selectivity, GI50 in A431 versus CUTO-14 and CUTO-17 (Example 5); format: cell-based; conditions: 72 hours, FIG. 23
Protocol: A shown in the top panel of FIG. 23, marketed compounds that target EGFR mutants show off-target binding to wild type EGFR, resulting in toxicities and reduced efficacy (FIG. 23, top panel). […] Following dosing, the cells were assessed for EGFR mutant signaling and cell proliferation. To measure signaling, the pERK AlphaLisa (Perkin Elmer # ALSU-PERK-A10K) was used to quantify phosphorylation of ERK1/2 (Thr202/Tyr204) in all treated cells. Cell proliferation was determined using the Cell Titer Glo assay (Promega G7573) at 72 hours following treatment. IC50 values for both pERK and growth inhibition (GI50) were determined (FIG. 23, bottom table). […] The ratio of the GI50 value in A431 cells to the GI50 in CUTO-14 and the ratio of the GI50 value in A431 cells to the GI50 in CUTO-17 was calculated (FIG. 23, bottom table). Higher ratios represent higher selectivity for the EGFR mutants compared to EGFR-WT.

| Structure (SMILES) | pERK1/2 (Thr202/Tyr204) in tumors (HER2 S310F) | pHER2 (Tyr1221/1222) in tumors (HER2 S310F) | IC50 (wild type HER2 (HER2-WT)) [nM] | Selectivity for EGFR mutants over EGFR-WT (ratio of GI50 in A431 to GI50 in CUTO-14 / CUTO-17) compared to marketed EGFR inhibitors [1] |
| --- | --- | --- | --- | --- |
| CC#CC(=O)Nc1cc2c(Nc3ccc(OCc4ccccn4)c(Cl)c3)ncnc2cc1OCCN1CCOCC1 [compound 5] | reduction | reduction | – | – |
| C=CC(=O)Nc1cc2c(Nc3cc(Cl)c(OCc4cccc(F)c4)cc3F)ncnc2cc1OCCN1CCOCC1 [compound 6] | – | – | < 10 | – |
| C=CC(=O)Nc1cc2c(Nc3ccc(OCc4ccccn4)c(Cl)c3)ncnc2cc1OCCN1CCOCC1 [compound 8] | – | – | – | reduced off-target binding to EGFR-WT relative to the marketed inhibitors |
| C=CC(=O)Nc1cc2c(Nc3ccc(OCc4ccccn4)c(Cl)c3)ncnc2cc1OCCCN1CCOCC1 [compound 21] | near complete reduction | near complete reduction | – | – |

From US11034672B1, “Tyrosine kinase inhibitor compositions, methods of making and methods of use” (Black Diamond Therapeutics, Inc., priority 2018, dated 2021)
